Target: hBPGM (Homo sapiens (Human), UniProt P07738)
Test: BPGM Synthase Assay
Assay type: biochemical
Conditions: Table 6 additional results; read-out: huBPGM: synthase Enzyme IC50
Experimental: Example B1. BPGM Synthase Assay
The following materials were used in this assay: deionized water; Bisphosphoglycerate mutase (BPGM; Standard Buffer: 50 mM Tris, 0.01% Tween 20, pH 7.4); BPGM Reaction Buffer (50 mM Tris, 0.01% Tween 20, 3.23 mM KH2PO4, pH 7.4); dithiothreitol (DTT; Stock solution: 100 mM in Standard Buffer); 384-Well Black Assay Plate (Corning, P/N 3575); DMSO; BPGM Stock Solution (500 nM in BPGM Standard Buffer); Glyceraldehyde 3-phosphate dehydrogenase (GAPDH; Stock Solution: 40 U/mL in 20 mM Tris-HCL Buffer with 20% Glycerol, 1 mM EDTA, 1 mM DTT); Glyceraldehyde 3-phosphate (GAP; Stock Solution: 20 mM in BPGM Standard Buffer); 3-PG Stock Solution (500 μM in BPGM Standard Buffer); Nicotinamide adenine dinucleotide (NAD; Stock Solution: 50 mM in BPGM Standard Buffer); Koningic Acid (1 mM Stock in DMSO); Resazurin Stock Solution (10 mM in DMSO); Diaphorase Stock Solution (40 U/mL in BPGM Standard Buffer); DTT Reaction Buffer (1 mM DTT in BPGM Reaction Buffer); Enzyme Solution (5 nM BPGM, 0.4 U/mL GAPDH in DTT Reaction Buffer); GAPDH Solution (0.4 U/mL GAPDH in DTT Reaction Buffer); Substrate Solution (2 mM NAD, 20 μM 3PG, 800 μM GAP in DTT Reaction Buffer); and Resazurin Solution (5 U/mL Diaphorase, 500 μM Resazurin in BPGM Standard Buffer).
To the assay plate was added Enzyme Solution (20 uL) to columns 2-22 and 24 of the assay plate. To columns 1 and 23 was added GAPDH Solution (20 uL). A separate compound plate was prepared at the desired concentrations and all wells were normalized with 5% DMSO. The compound plate was incubated for 30 minutes at RT. Next, the substrate solution (20 μL) was dispensed to all reaction wells and the plate was incubated for 60 minutes at RT. Koningic acid (1 μL) was added and the plate was incubated for 10 minutes at RT. During this time period, the NADH fluorescence was read at ex: 360/em: 460. Next, Resazurin Solution (10 μL) was added to all reaction wells and the plate was incubated for 30 minutes at RT. The resorufin fluorescence was then read at ex:544/em:590.

hBPGM, sequence (P07738 whole entry, looked up): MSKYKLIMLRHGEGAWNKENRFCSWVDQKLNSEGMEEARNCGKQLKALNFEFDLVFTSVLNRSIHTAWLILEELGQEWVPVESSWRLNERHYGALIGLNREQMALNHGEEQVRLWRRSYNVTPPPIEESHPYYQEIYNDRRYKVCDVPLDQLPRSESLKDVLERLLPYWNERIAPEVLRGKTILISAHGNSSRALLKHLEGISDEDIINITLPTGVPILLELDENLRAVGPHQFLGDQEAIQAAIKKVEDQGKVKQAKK

## Cc1nc(COc2cnn(C(C)(C)C)c2)sc1-c1cccc(-c2ccc(C(=O)O)cc2)n1 [Example 59]
  IC50: 970 nM

## Cc1ccc(C#N)c(OCCn2cc(-c3cccc(-c4ccc(C(=O)O)c(O)c4)c3)c(C)n2)n1 [Example 330]
  IC50: 6600 nM

## Cc1nc(COc2ccc(C(F)(F)F)cn2)sc1-c1cccc(-c2ccc(C(=O)O)cc2)n1 [Example 56]
  IC50: 3300 nM

## Cc1nc(Cn2c(C)ccc(C#N)c2=O)sc1-c1cccc(-c2ccc(C(=O)O)c(O)c2)c1 [Example 295]
  IC50: 600 nM

## Cc1nc(COc2ccc(F)cn2)sc1-c1ccc(-c2ccc(C(=O)O)c(O)c2)s1 [Example 341]
  IC50: 4100 nM

## Cc1nc(COc2ccc(C(F)(F)F)nn2)sc1-c1cccc(-c2ccc(C(=O)O)cc2)n1 [Example 48]
  IC50: 1900 nM

## Cc1nc(COc2ccc(C(F)(F)F)nc2)sc1-c1cccc(-c2ccc(C(=O)O)cc2)n1 [Example 61]
  IC50: 1300 nM

## Cc1nc(C)c(-c2cncc(-c3ccc(C(=O)O)c(O)c3)c2)s1 [Example 299]
  IC50: 25000 nM

## Cc1nc(C)c(-c2csc(-c3ccc(C(=O)O)c(O)c3)n2)s1 [Example 315]
  IC50: 1400 nM

## Cc1nc(C)c(COc2ccc(C(=O)O)c(O)c2)s1 [Example 338]
  IC50: > 25000 nM

## Cc1ccc(C#N)c(OCCn2cc(-c3cccc(-c4ccc(C(=O)O)c(O)c4)c3)cn2)n1 [Example 111]
  IC50: 15000 nM

## Cc1nc(COc2ncccn2)sc1-c1cccc(-c2cc(C(=O)O)co2)n1 [Example 39]
  IC50: 18000 nM

## Cc1nc(C)c(-c2ccc(C#N)c(-c3ccc(C(=O)O)c(O)c3)c2)s1 [Example 294]
  IC50: 44000 nM

## Cc1nc(COc2ncccn2)sc1-c1cccc(-c2ccc3c(C(=O)O)c[nH]c3c2)n1 [Example 334]
  IC50: 1700 nM

## Cc1nc(C)c(-c2cccc(-c3ccc(C(=O)O)c(O)c3)c2)s1 [Example 329]
  IC50: 2300 nM

## Cc1nc(COc2ncccn2)sc1-c1cccc(-c2ccc(C(=O)O)cc2C(C)C)n1 [Example 28]
  IC50: > 25000 nM

## Cc1nc(COCC2CCCO2)sc1-c1cccc(-c2ccc(C(=O)O)cc2)c1 (stereo not drawn) [Example 46]
  IC50: 1200 nM

## Cc1nc(C)c(-c2cccc(-c3ccc(C(=O)O)cc3)c2F)s1 [Example 297]
  IC50: 28000 nM

## Cc1nc(COc2ccc(F)cn2)sc1-c1cnn(-c2ccc(C(=O)O)c(O)c2)c1 [Example 20]
  IC50: 2100 nM

## Cc1nc(COc2ncccn2)sc1-c1ccnc(-c2ccc(C(=O)O)cc2)c1 [Example 23]
  IC50: 17000 nM

## Cc1nc(COC2CCOC2)sc1-c1cccc(-c2ccc(C(=O)O)cc2)c1 (stereo not drawn) [Example 44]
  IC50: 1900 nM

## Cc1nc(C)c(-c2nsc(-c3cc(O)c(C(=O)O)cc3F)n2)s1 [Example 205]
  IC50: 1100 nM

## COC(=O)NCc1ccc(-c2csc(-c3cc(O)c(C(=O)O)cc3F)n2)c(C)n1 [Example 206]
  IC50: 2000 nM

## Cc1nc(Cc2cccc(C(F)(F)F)c2)sc1-c1cccc(-c2ccc(C(=O)O)c(O)c2)c1 [Example 317]
  IC50: 3000 nM

## Cc1nc(CN2CCCCC2)sc1-c1cccc(-c2ccc(C(=O)O)c(O)c2)c1 [Example 298]
  IC50: 5000 nM

## Cc1nc(COC(=O)N(C)C)sc1-c1cccc(-c2ccc(C(=O)O)cc2)n1 [Example 64]
  IC50: 910 nM

## Cc1nc(COc2ncccn2)sc1-c1cccc(-c2ccc(C(=O)O)o2)n1 [Example 33]
  IC50: 11000 nM

## Cc1cc(C(=O)O)cc(C)c1-c1cccc(-c2sc(COc3ncccn3)nc2C)n1 [Example 31]
  IC50: > 25000 nM

## COC(=O)NCc1cc(C)c(-c2csc(-c3cc(O)c(C(=O)O)cc3F)n2)s1 [Example 179]
  IC50: 600 nM

## Cc1nc(Cc2ccc(C(F)(F)F)cc2)sc1-c1cccc(-c2ccc(C(=O)O)c(O)c2)c1 [Example 312]
  IC50: 6600 nM

## Cc1nc(CNC(=O)C(C)(C)C)sc1-c1cccc(-c2cc(O)c(C(=O)O)cc2F)n1 [Example 150]
  IC50: 500 nM

## Cc1nc(CCC(N)=O)sc1-c1cccc(-c2ccc(C(=O)O)c(O)c2)c1 [Example 265]
  IC50: 7800 nM

## Cc1ccc(C#N)c(OCCn2cc(-c3cccc(-c4ccc(C(=O)O)c(O)c4)c3)c(C)n2)n1 [Example 112]
  IC50: 35000 nM

Source: patent US20230348450A1, “CARBOXYLIC ACID-CONTAINING COMPOUNDS AS MODULATORS OF BIS-PHOSPHOGLYCERATE MUTASE FOR THE TREATMENT OF SICKLE CELL DISEASE” (Genzyme Corporation, priority 2020, published 2023)
